Source: patent US12391671B2, “Allosteric EGFR inhibitors and methods of use thereof” (Dana-Farber Cancer Institute, Inc., priority 2019, dated 2025)
Counter-ions that a name gives are not always drawn. Like-named read-outs stand apart in the source and are kept apart here.

What was measured:
EGFR L858R/T790M = EGFR L858R/T790M (Homo sapiens (Human), UniProt P00533, L858R/T790M); assay: HTRF-based EGFR biochemical assay (L858R/T790M); conditions: 100 μM ATP, enzyme 0.02 nM
Procedure, shortened: (§1)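 Mutant EGFR (L858R 0.1 nM, L858R/T790M 0.02 nM) preincubated 30 min with compounds at room temperature in HEPES pH 7.0 buffer with Mg2+/Mn2+, then reacted 20 min with 1 μM biotinylated tyrosine kinase peptide and 100 μM ATP. Phosphorylation read by HTRF (Eu-cryptate anti-phosphotyrosine/streptavidin-XL665, 665/620 nm) after EDTA quench.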

EGFR L858R = EGFR L858R (Homo sapiens (Human), UniProt P00533, L858R); assay: HTRF-based EGFR biochemical assay (L858R); conditions: 100 μM ATP, enzyme 0.1 nM
Sequence of EGFR L858R (P00533 25-1210 L858R): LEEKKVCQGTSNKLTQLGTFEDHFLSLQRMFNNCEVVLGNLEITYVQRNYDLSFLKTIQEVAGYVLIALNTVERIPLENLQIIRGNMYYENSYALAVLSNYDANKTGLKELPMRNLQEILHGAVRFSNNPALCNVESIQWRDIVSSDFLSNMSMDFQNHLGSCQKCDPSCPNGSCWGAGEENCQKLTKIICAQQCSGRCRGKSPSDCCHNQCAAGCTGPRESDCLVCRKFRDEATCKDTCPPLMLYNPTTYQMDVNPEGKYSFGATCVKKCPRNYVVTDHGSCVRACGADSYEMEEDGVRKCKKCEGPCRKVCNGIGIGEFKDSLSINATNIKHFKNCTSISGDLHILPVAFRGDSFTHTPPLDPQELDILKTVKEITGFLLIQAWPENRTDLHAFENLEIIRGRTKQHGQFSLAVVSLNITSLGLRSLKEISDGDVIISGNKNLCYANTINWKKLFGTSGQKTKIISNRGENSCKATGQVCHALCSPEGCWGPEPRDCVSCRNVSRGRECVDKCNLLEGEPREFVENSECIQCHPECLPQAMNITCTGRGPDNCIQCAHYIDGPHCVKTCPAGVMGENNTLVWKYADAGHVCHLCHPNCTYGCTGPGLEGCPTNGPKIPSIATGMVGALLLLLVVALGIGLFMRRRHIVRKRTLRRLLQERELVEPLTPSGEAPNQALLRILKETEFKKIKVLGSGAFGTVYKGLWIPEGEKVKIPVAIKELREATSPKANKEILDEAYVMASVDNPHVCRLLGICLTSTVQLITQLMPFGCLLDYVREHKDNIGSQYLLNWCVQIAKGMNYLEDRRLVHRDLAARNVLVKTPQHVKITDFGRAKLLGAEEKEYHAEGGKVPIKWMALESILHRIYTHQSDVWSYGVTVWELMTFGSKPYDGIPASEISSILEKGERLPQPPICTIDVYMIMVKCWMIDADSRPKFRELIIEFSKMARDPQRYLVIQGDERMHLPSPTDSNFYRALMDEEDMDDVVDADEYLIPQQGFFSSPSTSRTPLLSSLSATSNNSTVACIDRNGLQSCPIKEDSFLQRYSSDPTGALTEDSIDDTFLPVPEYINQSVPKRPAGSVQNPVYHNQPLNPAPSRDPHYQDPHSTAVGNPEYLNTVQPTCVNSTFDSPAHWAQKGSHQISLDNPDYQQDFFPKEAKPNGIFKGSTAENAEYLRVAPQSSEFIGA
Procedure, shortened: as §1

[1] = test system: EGFR mutant L858R/T790M Ba/F3 cells; assay: Ba/F3 cell proliferation model (Cell Titer Glo), EGFR L858R/T790M; format: cell-based, murine; conditions: 72 hours
Procedure, shortened: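 Retrovirally transduced Ba/F3 cells exposed 72 h to compound alone or with 1 μg/mL cetuximab, triplicate points, repeated at least three times. Viability by Cell Titer Glo luminescence (ATP); curves fitted by non-linear sigmoidal dose-response regression.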

[2] = test system: EGFR mutant L858R Ba/F3 cells; assay: Ba/F3 cell proliferation model (Cell Titer Glo), EGFR L858R; format: cell-based, murine; conditions: 72 hours
From the text: Example 26: Ba/F3 Cell Proliferation Models
The EGFR mutant L858R and L858R/T790M Ba/F3 cells have been previously described (Zhou, W., et al. Nature 462, 2009, 1070-1074). All cell lines were maintained in RPM 1640 (Cellgro; Mediatech Inc., Herndon. CA) supplemented with 10% FBS, 100 units/mL penicillin, 100 units/mL streptomycin. The EGFR I941R mutation was introduced via site directed mutagenesis using the Quick Change Site-Directed Mutagenesis kit (Stratagene; La Jolla, CA) according to the manufacturer's instructions. All constructs were confirmed by DNA sequencing. The constructs were shuttled into the retroviral vector JP1540 using the Cre-recombination system (Agilent Technologies, Santa Clara, CA). Ba/F3 cells were then infected with retrovirus per standard protocols, as described previously (Zhou, et al, Nature 2009). Stable clones were obtained by selection in puromycin (2 μg/ml).
Growth and inhibition of growth was assessed by the Cell Titer Glo® assay (Promega, Madison, WI) and was performed according to the manufacturer's instructions. The Cell Titer Glo® assay is a luminescence-based method used to determine the number of viable cells based on quantitation of the ATP present, which is directly proportional to the amount of metabolically active cells present. Ba/F3 cells of different EGFR genotypes were exposed to compounds as a single agent or in combination with 1 μg/mL cetuximab for 72 hours and the number of cells used per experiment was determined empirically as has been previously established (Zhou, et al., Nature 2009). All experimental points were set up in triplicates in 384-well plates and all experiments were repeated at least three times. […] The curves were fitted using a non-linear regression model with a sigmoidal dose response.

[3] = Mus musculus, BaF3, single agent, read-out: Cell IC50 BaF3 EGFR L858R/T790M
[4] = in combination with 1 μg/mL cetuximab, read-out: Cell IC50 BaF3 EGFR L858R/T790M (+cetux.)
[5] = Mus musculus, BaF3, single agent, read-out: Cell IC50 BaF3 EGFR L858R
[6] = in combination with 1 μg/mL cetuximab, read-out: Cell IC50 BaF3 EGFR L858R (+cetux.)

Sequence of EGFR L858R/T790M (P00533 25-1210 T790M/L858R): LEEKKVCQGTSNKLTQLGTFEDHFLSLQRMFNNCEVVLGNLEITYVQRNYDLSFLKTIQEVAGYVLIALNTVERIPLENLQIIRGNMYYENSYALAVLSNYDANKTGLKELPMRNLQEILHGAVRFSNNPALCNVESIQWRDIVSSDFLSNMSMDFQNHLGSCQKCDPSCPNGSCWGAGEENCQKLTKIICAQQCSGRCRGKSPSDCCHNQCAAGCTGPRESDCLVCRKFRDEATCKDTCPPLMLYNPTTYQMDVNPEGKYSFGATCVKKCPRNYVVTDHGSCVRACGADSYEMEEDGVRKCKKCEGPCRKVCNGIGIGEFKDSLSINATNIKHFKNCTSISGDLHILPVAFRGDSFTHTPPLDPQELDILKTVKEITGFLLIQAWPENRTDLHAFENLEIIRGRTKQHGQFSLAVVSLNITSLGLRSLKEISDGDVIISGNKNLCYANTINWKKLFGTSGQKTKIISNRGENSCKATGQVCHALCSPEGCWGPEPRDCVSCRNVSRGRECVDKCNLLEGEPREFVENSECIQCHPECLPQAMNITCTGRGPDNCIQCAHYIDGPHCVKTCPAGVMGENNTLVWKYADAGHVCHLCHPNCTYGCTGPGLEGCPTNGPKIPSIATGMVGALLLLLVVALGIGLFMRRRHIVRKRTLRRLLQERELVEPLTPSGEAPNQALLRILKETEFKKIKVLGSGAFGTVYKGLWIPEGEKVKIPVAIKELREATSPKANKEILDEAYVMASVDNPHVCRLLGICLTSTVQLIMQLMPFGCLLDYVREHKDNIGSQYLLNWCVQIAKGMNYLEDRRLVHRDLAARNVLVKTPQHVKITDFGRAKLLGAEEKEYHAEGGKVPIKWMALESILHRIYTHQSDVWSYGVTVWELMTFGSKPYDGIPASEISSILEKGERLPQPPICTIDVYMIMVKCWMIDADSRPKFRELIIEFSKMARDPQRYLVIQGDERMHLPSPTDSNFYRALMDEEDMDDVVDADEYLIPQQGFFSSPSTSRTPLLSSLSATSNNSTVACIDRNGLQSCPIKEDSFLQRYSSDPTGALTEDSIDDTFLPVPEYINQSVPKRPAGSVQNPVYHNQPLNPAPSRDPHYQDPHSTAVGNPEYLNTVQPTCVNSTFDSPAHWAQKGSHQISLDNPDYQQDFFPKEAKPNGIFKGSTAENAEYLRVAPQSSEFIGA

For `CN1CCC(c2ccc(-c3ccc4c(c3)C(=S)N(C(c3nc5ccccc5[nH]3)c3cc(F)ccc3O)C4)cc2)CC1` (centres unmarked) [Compound 078, 2-[1H-benzimidazol-2-yl-(5-fluoro-2-hydroxy-phenyl)methyl]-6-[4-(1-methyl-4-piperidyl)phenyl]isoindoline-1-thione;dihydrochloride], the IC50 (EGFR L858R/T790M) was 1 nM, the IC50 (EGFR L858R) was 3 nM and the IC50 [1, 3] was 310 nM. It also gave an IC50 [1, 4] of 20 nM and an IC50 [2, 5] of 690 nM.
`CN1CCC(c2ccc(-c3ccc4ccn(C(c5ccccc5)c5nc6ccccc6[nH]5)c(=O)c4c3F)cc2)CC1` (centres unmarked) [Compound 071] was tested, and the IC50 (EGFR L858R/T790M) was 20 nM, the IC50 (EGFR L858R) was > 100 nM and the IC50 [1, 3] was 1380 nM. For the same compound, the IC50 [1, 4] was 330 nM and the IC50 [2, 5] was 1210 nM.
With `CCc1c(-c2ccc(C3CCN(C)CC3)cc2)ccc2ncn(C(c3nc4ccccc4[nH]3)c3cc(F)ccc3O)c(=O)c12` (centres unmarked) [Compound 074, 3-[1H-benzimidazol-2-yl-(5-fluoro-2-hydroxy-phenyl)methyl]-5-ethyl-6-[4-(1-methyl-4-piperidyl)phenyl]-quinazolin-4-one; dihydrochloride] the IC50 (EGFR L858R/T790M) was 1 nM, the IC50 (EGFR L858R) was 2 nM and the IC50 [1, 3] was 120 nM. It also gave an IC50 [1, 4] of 20 nM and an IC50 [2, 5] of 110 nM.
`CN1CCC(c2ccc(-c3ccc4cn(C(c5nc6ccccc6[nH]5)c5cc(F)ccc5O)nc4c3F)cc2)CC1` (centres unmarked) [Compound 034, 2-[1H-benzimidazol-2-yl-[7-fluoro-6-[4-(1-methyl-4-piperidyl)phenyl]indazol-2-yl]methyl]-4-fluoro-phenol;hydrochloride] gave an IC50 (EGFR L858R/T790M) of 0.7 nM, an IC50 (EGFR L858R) of 4 nM and an IC50 [1, 3] of 420 nM. The IC50 [1, 4] was 5 nM, the IC50 [2, 5] was 1430 nM and the IC50 [2, 6] was 60 nM.
In the case of `CN1CCC(c2ccc(-c3cc(F)c4c(=O)n(C(c5nc6ccccc6[nH]5)c5cc(F)ccc5O)ccc4c3)cc2)CC1` (centres unmarked) [Compound 070, 2-[1H-benzimidazol-2-yl-(5-fluoro-2-hydroxy-phenyl)methyl]-8-fluoro-6-[4-(1-methyl-4-piperidyl)phenyl]isoquinolin-1-one], the IC50 (EGFR L858R/T790M) is reported as 1 nM, the IC50 (EGFR L858R) is reported as 4 nM and the IC50 [1, 3] is reported as 70 nM. The IC50 [1, 4] was 5 nM and the IC50 [2, 5] was 160 nM.
With `CN1CCC(c2ccc(-c3ccc4ncn(C(c5nc6ccccc6[nH]5)c5cc(F)ccc5O)c(=O)c4n3)cc2)CC1` (centres unmarked) [Compound 009, 3-((1H-Benzo[d]imidazol-2-yl)(5-fluoro-2-hydroxyphenyl)methyl)-6-(4-(1-methylpiperidin-4-yl)phenyl)pyrido[3,2-d]pyrimidin-4(3H)-one 2,2,2-trifluoroacetate] the IC50 (EGFR L858R/T790M) was 0.4 nM, the IC50 (EGFR L858R) was 3 nM and the IC50 [1, 3] was 940 nM. For the same compound, the IC50 [1, 4] was 20 nM, the IC50 [2, 5] was 3890 nM and the IC50 [2, 6] was 180 nM.
Compound `CN1CCC(c2ccc(-c3cc4ccn(C(c5nc6ccccc6[nH]5)c5cc(F)ccc5O)c(=O)c4cc3F)cc2)CC1` (centres unmarked) [Compound 073, 2-[1H-benzimidazol-2-yl-(5-fluoro-2-hydroxy-phenyl)methyl]-7-fluoro-6-[4-(1-methyl-4-piperidy)phenyl]-isoquinolin-1-one] has an IC50 (EGFR L858R/T790M) of 14 nM, an IC50 (EGFR L858R) of 21 nM and an IC50 [1, 3] of 580 nM. The IC50 [1, 4] was 20 nM and the IC50 [2, 5] was 930 nM.
`CN1CCC(c2ccc(-c3ccc4ccn(C(c5nc6ccccc6[nH]5)c5cc(F)ccc5O)c(=O)c4c3)cc2)CC1` (centres unmarked) [Compound 063, 2-[1H-benzimidazol-2-yl-(5-fluoro-2-hydroxy-phenyl)methyl]-7-[4-(1-methyl-4-piperidyl)phenyl]isoquinolin-1-one] was tested, and the IC50 (EGFR L858R/T790M) was 2 nM, the IC50 (EGFR L858R) was 9 nM and the IC50 [1, 3] was 890 nM. The IC50 [1, 4] was 50 nM and the IC50 [2, 5] was 1050 nM.
Compound `Cc1c(-c2ccc(C3CCN(C)CC3)cc2)ccc2c1C(=O)N(C(c1nc3ccccc3[nH]1)c1cc(F)ccc1O)C2` (centres unmarked) [Compound 082, 2-[1H-benzimidazol-2-yl-(5-fluoro-2-hydroxy-phenyl)methyl]-7-methyl-6-[4-(1-methyl-4-piperidyl)phenyl]isoindolin-1-one; dihydrochloride] has an IC50 (EGFR L858R/T790M) of 0.6 nM, an IC50 (EGFR L858R) of 3 nM and an IC50 [1, 3] of 220 nM. The IC50 [1, 4] was 20 nM and the IC50 [2, 5] was 670 nM.
`CN1CCC(Oc2ccc(-c3ccc4c(c3)C(=O)N(C(c3nc5ccccc5[nH]3)c3cc(F)ccc3O)C4)cc2)CC1` (centres unmarked) [Compound 090, 2-[1H-benzimidazol-2-yl-(5-fluoro-2-hydroxy-phenyl)methyl]-6-[4-[(1-methyl-4-piperidyl)oxy]phenyl]isoindolin-1-one] was tested, and the IC50 (EGFR L858R/T790M) was 8 nM, the IC50 (EGFR L858R) was 11 nM and the IC50 [1, 3] was 860 nM. The IC50 [1, 4] was 20 nM and the IC50 [2, 5] was 1430 nM.
Compound `CN1CCC(c2ccc(-c3ccc4c(c3)C(=O)N(C(c3nc5cccnc5[nH]3)c3cc(F)ccc3O)C4)cc2)CC1` (centres unmarked) [Compound 014, 2-[(5-Fluoro-2-hydroxy-phenyl)-(3H-imidazo[4,5-b]pyridin-2-yl)methyl]-6-[4-(1-methyl-4-piperidyl)phenyl]isoindolin-1-one; hydrochloride] has an IC50 (EGFR L858R/T790M) of 0.3 nM, an IC50 (EGFR L858R) of 2 nM and an IC50 [1, 3] of 710 nM. For the same compound, the IC50 [1, 4] was 10 nM, the IC50 [2, 5] was 810 nM and the IC50 [2, 6] was 60 nM.
`CN1CCC(c2ccc(-c3ccc4cn(C(c5nc6ccccc6[nH]5)c5cc(F)ccc5O)nc4c3)cc2)CC1` (centres unmarked) [Compound 100, 2-((1H-Benzo[d]imidazol-2-yl)(6-(4-(1-methylpiperidin-4-yl)phenyl)-2H-indazol-2-yl)methyl)-4-fluorophenol; trifluoroacetate] was tested, and the IC50 (EGFR L858R/T790M) was 4 nM, the IC50 (EGFR L858R) was 14 nM and the IC50 [1, 3] was 530 nM. The IC50 [2, 5] was 2000 nM.
In the case of `CN1CCC(c2ccc(-c3ccc4cn(C(c5nc6ccccc6[nH]5)c5cc(F)ccc5O)nc4c3Cl)cc2)CC1` (centres unmarked) [Compound 092, 2-[1H-benzimidazol-2-yl-[7-chloro-6-[4-(1-methyl-4-piperidyl)phenyl]-indazol-2-yl]methyl]-4-fluoro-phenol; dihydrochloride], the IC50 (EGFR L858R/T790M) is reported as 1 nM, the IC50 (EGFR L858R) is reported as 4 nM and the IC50 [1, 3] is reported as 100 nM. For the same compound, the IC50 [1, 4] was 10 nM and the IC50 [2, 5] was 820 nM.
In the case of `CN1CCC(c2ccc(-c3ccc4c(c3F)C(=O)N(C(c3nc5ccccc5[nH]3)c3cc(F)ccc3O)C4)cc2)CC1` (centres unmarked) [Compound 032, 2-[1H-benzimidazol-2-yl-(5-fluoro-2-hydroxy-phenyl)methyl]-7-fluoro-6-[4-(1-methyl-4-piperidyl)phenyl]isoindolin-1-one;hydrochloride], the IC50 [1, 3] is reported as 210 nM, the IC50 [1, 4] is reported as 7 nM and the IC50 [2, 5] is reported as 960 nM. The IC50 [2, 6] was 50 nM.
In the case of `CN1CCC(c2ccc(-c3cc(F)c4c(=O)n([C@@H](c5nc6ccccc6[nH]5)c5cc(F)ccc5O)ccc4c3)cc2)CC1` (single isomer, unassigned) [Compound 065], the IC50 (EGFR L858R/T790M) is reported as 0.5 nM, the IC50 (EGFR L858R) is reported as 2 nM and the IC50 [1, 3] is reported as 30 nM. For the same compound, the IC50 [2, 5] was 130 nM.
For `CN1CCC(c2ccc(-c3ccc4c(c3)C(=O)N(C(c3nc5cccc(F)c5[nH]3)c3cc(F)ccc3O)C4)cc2)CC1` (centres unmarked) [Compound 020, 2-[(7-Fluoro-1H-benzimidazol-2-yl)-(5-fluoro-2-hydroxy-phenylmethyl]-6-(4-(1-methy-4-piperidyl)phenyl]isoindolin-1-one; hydrochloride], the IC50 [1, 3] was 440 nM, the IC50 [1, 4] was 6 nM and the IC50 [2, 5] was 1360 nM. For the same compound, the IC50 [2, 6] was 170 nM.
With `CN1CCC(c2ccc(-c3ccc4c(c3)C(=S)N([C@@H](c3nc5ccccc5[nH]3)c3cc(F)ccc3O)C4)cc2)CC1` (single isomer, unassigned) [Compound 083] the IC50 (EGFR L858R/T790M) was 0.6 nM, the IC50 (EGFR L858R) was 1 nM and the IC50 [1, 3] was 200 nM. For the same compound, the IC50 [2, 5] was 630 nM.
In the case of `Cc1nnc(C(c2cc(F)ccc2O)N2Cc3ccc(-c4ccc(C5CCN(C)CC5)cc4)cc3C2=O)[nH]1` (centres unmarked) [Compound 089, 2-[(5-fluoro-2-hydroxy-phenyl)-(5-methyl-4H-1,2,4-triazol-3-yl)methyl]-6-[4-(1-methyl-4-piperidyl)phenyl]isoindolin-1-one;hydrochloride], the IC50 [1, 3] is reported as 5950 nM and the IC50 [2, 5] is reported as 4530 nM.
Compound `CN1CCC(c2ccc(-c3ccc4c(c3)C(=O)N(C(c3nc5ccccc5[nH]3)c3n[nH]c5c3CCC5)C4)cc2)CC1` (centres unmarked) [Compound 033, 2-[1H-Benzimidazol-2-yl(1,4,5,6-tetrahydrocyclopenta[c]pyrazol-3-yl)methyl]-6-[4-(1-methyl-4-piperidyl)phenyl]isoindolin-1-one] has an IC50 (EGFR L858R/T790M) of 6 nM, an IC50 (EGFR L858R) of 24 nM and an IC50 [1, 3] of 5230 nM. The IC50 [1, 4] was 340 nM.
